Source: patent US11242343B2 (Incyte Corporation, priority 2016, dated 2022)
pKi: −log10 of the molar value.

biological target: HPK1 (Homo sapiens, UniProt Q92918); assay: HPK1 Kinase Binding Assay; conditions: LanthaScreen tracer 222 binding, one hour incubation at 25° C.
Procedure: Example A. HPK1 Kinase Binding Assay
A stock solution of 1 mM test compound was prepared in DMSO. The compound plate was prepared by 3-fold and 11-point serial dilutions. 0.1 μL of the compound in DMSO was transferred from the compound plate to the white 384 well polystyrene plates. The assay buffer contained 50 mM HEPES, pH 7.5, 0.01% Tween-20, 5 mM MgCl2, 0.01% BSA, and 5 mM DTT. 5 μl of 4 nM active HPK1 (SignalChem M23-11G) prepared in the buffer was added to the plate. The enzyme concentration given was based on the given stock concentration reported by the vender. 5 μl of 18 nM tracer 222 (ThermoFisher PV6121) and 4 nM LanthaScreen Eu-Anti GST antibody (ThermoFisher PV5595) were added. After one hour incubation at 25° C., the plates were read on a PHERAstar FS plate reader (BMG Labtech). Ki values were determined.

Sequence of HPK1 (Q92918 whole entry, looked up): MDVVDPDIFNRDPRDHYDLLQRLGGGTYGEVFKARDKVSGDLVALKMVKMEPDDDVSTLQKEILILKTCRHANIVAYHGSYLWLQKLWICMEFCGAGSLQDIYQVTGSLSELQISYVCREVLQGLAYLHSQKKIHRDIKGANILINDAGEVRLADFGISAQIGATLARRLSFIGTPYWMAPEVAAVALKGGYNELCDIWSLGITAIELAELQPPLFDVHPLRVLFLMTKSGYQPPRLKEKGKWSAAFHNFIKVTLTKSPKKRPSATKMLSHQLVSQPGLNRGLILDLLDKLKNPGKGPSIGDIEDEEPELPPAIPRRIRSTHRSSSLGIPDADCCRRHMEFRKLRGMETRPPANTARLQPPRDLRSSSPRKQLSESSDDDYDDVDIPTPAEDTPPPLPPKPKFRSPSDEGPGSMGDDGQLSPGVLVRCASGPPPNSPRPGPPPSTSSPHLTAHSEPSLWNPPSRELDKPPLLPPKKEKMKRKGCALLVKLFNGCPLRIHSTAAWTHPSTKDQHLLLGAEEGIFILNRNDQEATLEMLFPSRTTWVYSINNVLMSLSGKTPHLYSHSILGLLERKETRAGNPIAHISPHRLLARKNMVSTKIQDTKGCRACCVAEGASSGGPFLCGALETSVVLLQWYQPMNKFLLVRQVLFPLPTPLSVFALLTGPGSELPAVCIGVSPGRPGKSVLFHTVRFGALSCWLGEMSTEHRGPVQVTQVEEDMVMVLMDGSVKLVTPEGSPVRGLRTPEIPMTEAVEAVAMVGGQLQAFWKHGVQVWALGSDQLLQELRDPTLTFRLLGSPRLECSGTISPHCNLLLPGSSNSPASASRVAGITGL

Row | SMILES | pKi
1 | CN1CCN(c2ccc(-c3n[nH]c4ccc(-c5cccnc5)nc34)cc2)CC1 [Example 24, 3-(4-(4-Methylpiperazin-1-yl)phenyl)-5-(pyridin-3-yl)-1H-pyrazolo[4,3-b]pyridine] | ≥ 7.00
2 | Cc1cccc(F)c1-c1nc2c(-c3cnc(N4CCOCC4)nc3)n[nH]c2cc1C#N [Example 63, 5-(2-Fluoro-6-methylphenyl)-3-(2-morpholinopyrimidin-5-yl)-1H-pyrazolo[4,3-b]pyridine-6-carbonitrile] | ≥ 7.00
3 | CNCc1cc(C)c(-c2nc3c(-c4cnc(N5CCN(C)CC5)nc4)n[nH]c3cc2C#N)c(F)c1 [Example 68, 5-(2-Fluoro-6-methyl-4-((methylamino)methyl)phenyl)-3-(2-(4-methylpiperazin-1-yl)pyrimidin-5-yl)-1H-pyrazolo[4,3-b]pyridine-6-carbonitrile] | ≥ 7.00
4 | COc1cccc(F)c1-c1ccc2[nH]nc(-c3ccc(N4CCN(C)CC4)cc3)c2n1 [Example 8, 5-(2-Fluoro-6-methoxyphenyl)-3-(4-(4-methylpiperazin-1-yl)phenyl)-1H-pyrazolo[4,3-b]pyridine] | ≥ 7.00
5 | CN1CCN(c2ccc(-c3n[nH]c4ccc(-c5cccc6c5CCNC6)nc34)cc2)CC1 [Example 46, 5-(3-(4-(4-Methylpiperazin-1-yl)phenyl)-1H-pyrazolo[4,3-b]pyridin-5-yl)-1,2,3,4-tetrahydroisoquinoline] | ≥ 7.00
6 | CN1CCN(c2ccc(-c3n[nH]c4ccc(-c5cnc6c(c5)CC(=O)N6)nc34)cc2)CC1 [Example 27, 5-(3-(4-(4-Methylpiperazin-1-yl)phenyl)-1H-pyrazolo[4,3-b]pyridin-5-yl)-1H-pyrrolo[2,3-b]pyridin-2(3H)-one] | ≥ 7.00
7 | CN1CCN(c2ccc(-c3n[nH]c4ccc(-c5cnc6c(c5)ncn6C)nc34)cc2)CC1 [Example 31, 5-(3-Methyl-3H-imidazo[4,5-b]pyridin-6-yl)-3-(4-(4-methylpiperazin-1-yl)phenyl)-1H-pyrazolo[4,3-b]pyridine] | ≥ 7.00
8 | CNCc1cc(C)c(-c2nc3c(-c4ccc(C(=O)NC)nc4)n[nH]c3cc2C#N)c(F)c1 [Example 72, 5-(6-Cyano-5-(2-fluoro-6-methyl-4-((methylamino)methyl)phenyl)-1H-pyrazolo[4,3-b]pyridin-3-yl)-N-methylpicolinamide] | ≥ 7.00
9 | CCN1CCN(c2ccc(-c3n[nH]c4cc(C#N)c(-c5c(C)cccc5F)nc34)cc2)CC1 [Example 64] | ≥ 7.00
10 | CN1CCN(c2ccc(-c3n[nH]c4ccc(-c5cnc6nccnc6c5)nc34)cc2)CC1 [Example 32, 7-(3-(4-(4-methylpiperazin-1-yl)phenyl)-1H-pyrazolo[4,3-b]pyridin-5-yl)pyrido[3,2-b]pyrazine] | ≥ 7.00
11 | CN1CCN(c2ccc(-c3n[nH]c4ccc(-c5cccc(C(=O)NCc6ccccc6)c5F)nc34)cc2)CC1 [Example 42, N-Benzyl-2-fluoro-3-(3-(4-(4-methylpiperazin-1-yl)phenyl)-1H-pyrazolo[4,3-b]pyridin-5-yl)benzamide] | ≥ 7.00
12 | CN1CCN(c2ccc(-c3n[nH]c4ccc(-c5cccc(NS(C)(=O)=O)c5F)nc34)cc2)CC1 [Example 13, N-(2-Fluoro-3-(3-(4-(4-methylpiperazin-1-yl)phenyl)-1H-pyrazolo[4,3-b]pyridin-5-yl)phenyl)methanesulfonamide] | ≥ 7.00
13 | CN1CCN(c2ccc(-c3n[nH]c4ccc(-c5cccc6[nH]ncc56)nc34)cc2)CC1 [Example 23, 5-(1H-Indazol-4-yl)-3-(4-(4-methylpiperazin-1-yl)phenyl)-1H-pyrazolo[4,3-b]pyridine] | ≥ 7.00
14 | CNCc1cc(C)c(-c2nc3c(-c4ccc(C(C)(C)O)nc4)n[nH]c3cc2C#N)c(F)c1 [Example 71, 5-(2-Fluoro-6-methyl-4-((methylamino)methyl)phenyl)-3-(6-(2-hydroxypropan-2-yl)pyridin-3-yl)-1H-pyrazolo[4,3-b]pyridine-6-carbonitrile] | ≥ 7.00
15 | CNCc1cc(F)c(-c2ccc3[nH]nc(-c4ccc(N5CCN(C)CC5)cc4)c3n2)c(F)c1 [Example 61, 1-(3,5-Difluoro-4-(3-(4-(4-methylpiperazin-1-yl)phenyl)-1H-pyrazolo[4,3-b]pyridin-5-yl)phenyl)-N-methylmethanamine] | ≥ 7.00
16 | CN1CCC(NC(=O)c2ccc(-c3n[nH]c4ccc(-c5ccccc5F)nc34)cc2)CC1 [Example 55, 4-(5-(2-Fluorophenyl)-1H-pyrazolo[4,3-b]pyridin-3-yl)-N-(1-methylpiperidin-4-yl)benzamide] | ≥ 7.00
17 | CN1CCN(c2ccc(-c3n[nH]c4ccc(-c5cccn6ccnc56)nc34)cc2)CC1 [Example 44, 5-(Imidazo[1,2-a]pyridin-8-yl)-3-(4-(4-methylpiperazin-1-yl)phenyl)-1H-pyrazolo[4,3-b]pyridine] | ≥ 7.00
18 | Cn1cc(-c2n[nH]c3cc(C#N)c(-c4c(F)ccc5c4CCNC5)nc23)cn1 [Example 74] | ≥ 7.00
19 | CNCc1cc(C)c(-c2nc3c(-c4cnn(C)c4)n[nH]c3cc2C#N)c(F)c1 [Example 66, 5-(2-Fluoro-6-methyl-4-((methylamino)methyl)phenyl)-3-(1-methyl-1H-pyrazol-4-yl)-1H-pyrazolo[4,3-b]pyridine-6-carbonitrile] | ≥ 7.00
20 | Cc1c(N)cccc1-c1ccc2[nH]nc(-c3ccc(N4CCN(C)CC4)cc3)c2n1 [Example 6, 2-Methyl-3-(3-(4-(4-methylpiperazin-1-yl)phenyl)-1H-pyrazolo[4,3-b]pyridin-5-yl)aniline] | ≥ 7.00
21 | Cc1cccc(F)c1-c1ccc2[nH]nc(-c3ccc(N4CCN(C)CC4)cc3)c2n1 [Example 7, 5-(2-Fluoro-6-methylphenyl)-3-(4-(4-methylpiperazin-1-yl)phenyl)-1H-pyrazolo[4,3-b]pyridine] | ≥ 7.00

Next, values leading:

Row | pKi | SMILES
22 | ≥ 7.00 | COc1ccc(F)c(F)c1-c1ccc2[nH]nc(-c3ccc(N4CCN(C)CC4)cc3)c2n1 [Example 10, 5-(2,3-Difluoro-6-methoxyphenyl)-3-(4-(4-methylpiperazin-1-yl)phenyl)-1H-pyrazolo[4,3-b]pyridine]
23 | ≥ 7.00 | CN1CCN(c2ccc(-c3n[nH]c4ccc(-c5cncc(-c6ncco6)c5)nc34)cc2)CC1 [Example 29, 2-(5-(3-(4-(4-Methylpiperazin-1-yl)phenyl)-1H-pyrazolo[4,3-b]pyridin-5-yl)pyridin-3-yl)oxazole]
24 | ≥ 7.00 | CN1CCN(c2ccc(-c3n[nH]c4ccc(-c5ccccc5F)nc34)cc2)CC1 [Example 4, 5-(2-Fluorophenyl)-3-(4-(4-methylpiperazin-1-yl)phenyl)-1H-pyrazolo[4,3-b]pyridine]
25 | ≥ 7.00 | CNCc1cc(C)c(-c2nc3c(-c4ccc(N5CCN(C)CC5)nc4)n[nH]c3cc2C#N)c(F)c1 [Example 67, 5-(2-Fluoro-6-methyl-4-((methylamino)methyl)phenyl)-3-(6-(4-methylpiperazin-1-yl)pyridin-3-yl)-1H-pyrazolo[4,3-b]pyridine-6-carbonitrile]
26 | ≥ 7.00 | CN1CCN(c2ccc(-c3n[nH]c4ccc(-c5cncnc5)nc34)cc2)CC1 [Example 26, 3-(4-(4-Methylpiperazin-1-yl)phenyl)-5-(pyrimidin-5-yl)-1H-pyrazolo[4,3-b]pyridine]
27 | ≥ 7.00 | CN1CCN(c2ccc(-c3n[nH]c4cc(C#N)c(-c5c(F)ccc6c5CCNC6)nc34)cn2)CC1 [Example 76]
28 | ≥ 7.00 | CN1CCN(c2ccc(-c3n[nH]c4ccc(-c5cccc(F)c5F)nc34)cc2)CC1 [Example 9, 5-(2,3-Difluorophenyl)-3-(4-(4-methylpiperazin-1-yl)phenyl)-1H-pyrazolo[4,3-b]pyridine]
29 | ≥ 7.00 | CN1CCN(c2ccc(-c3n[nH]c4ccc(-c5cncc6oc(C(C)(C)C)nc56)nc34)cc2)CC1 [Example 33, 2-tert-Butyl-7-(3-(4-(4-methylpiperazin-1-yl)phenyl)-1H-pyrazolo[4,3-b]pyridin-5-yl)oxazolo[5,4-c]pyridine]
30 | ≥ 7.00 | CCN1CCN(c2ccc(-c3n[nH]c4cc(C#N)c(-c5c(C)cc(CNC)cc5F)nc34)cc2)CC1 [Example 69, 3-(4-(4-Ethylpiperazin-1-yl)phenyl)-5-(2-fluoro-6-methyl-4-((methylamino)methyl)phenyl)-1H-pyrazolo[4,3-b]pyridine-6-carbonitrile]
31 | ≥ 7.00 | CCOC(=O)c1cccc(-c2ccc3[nH]nc(-c4ccc(N5CCN(C)CC5)cc4)c3n2)c1F [Example 12, Ethyl 2-fluoro-3-(3-(4-(4-methylpiperazin-1-yl)phenyl)-1H-pyrazolo[4,3-b]pyridin-5-yl)benzoate]
32 | ≥ 7.00 | CN1CCN(c2ccc(-c3n[nH]c4ccc(-c5cnn6ccccc56)nc34)cc2)CC1 [Example 35, 3-(4-(4-Methylpiperazin-1-yl)phenyl)-5-(pyrazolo[1,5-a]pyridin-3-yl)-1H-pyrazolo[4,3-b]pyridine]
33 | ≥ 7.00 | CN1CCN(c2ccc(-c3n[nH]c4ccc(-c5cncc6ccccc56)nc34)cc2)CC1 [Example 37, 4-(3-(4-(4-Methylpiperazin-1-yl)phenyl)-1H-pyrazolo[4,3-b]pyridin-5-yl)isoquinoline]
34 | ≥ 7.00 | Cc1cccc(F)c1-c1nc2c(-c3cnn(C)c3)n[nH]c2cc1C#N [Example 77]
35 | ≥ 7.00 | CNCc1cc(C)c(-c2nc3c(-c4cnc(N5CCOCC5)nc4)n[nH]c3cc2C#N)c(F)c1 [Example 70, 5-(2-Fluoro-6-methyl-4-((methylamino)methyl)phenyl)-3-(2-morpholinopyrimidin-5-yl)-1H-pyrazolo[4,3-b]pyridine-6-carbonitrile]
36 | ≥ 7.00 | CN1CCN(c2ccc(-c3n[nH]c4ccc(-c5cccc(C(N)=O)c5F)nc34)cc2)CC1 [Example 40, 2-Fluoro-3-(3-(4-(4-methylpiperazin-1-yl)phenyl)-1H-pyrazolo[4,3-b]pyridin-5-yl)benzamide]
